We go through 1 compound from US20110046235A1, “PRODUCTS COMPRISING, AND USES OF, DECARBOXYLATED PHENOLIC ACIDS DERIVED FROM CHLOROGENIC ACIDS OF COFFEE” (NESTEC S.A., priority 2008, published 2011).

For one assay, the system named is Nrf2. Kind of assay: Antioxidant Responsive Element (ARE) luciferase assay. The assay is classed as cell-based, human. The settings on record: 24 h, AREc 32 (MCF7) cells. From the text: The pGL-8×ARE which contains eight copies of the ARE present in rat glutathione-S-transferase A2 (GSTA2) along with the pcDNA3.1 plasmid containing the neomycin selectable marker was stably transfected into human MCF7 cells (Wang et al., Cancer Res. 66, 10983-10994, 2006). ARE (antioxidant-responsive element) is the binding site of the transcription factor Nrf2 which regulates the genes involved in detoxification and endogenous defence against oxidative stress. The plasmid pGL-8×ARE contains a luciferase gene downstream of the eight Nrf2 binding sites that allows monitoring Nrf2 activity. The AREc 32 cells were seeded in 96-well microtiter plates in DMEM growth medium. After treatment with 4-vinylcatechol for 24 h firefly luciferase activity was determined.

For assay [1], the system named is PGE2 production in HT-29 cells. As to the kind of experiment: Prostaglandin E2 formation assay. The format is cell-based, human. Particulars: 15 h then 6 h with TNF-α 10 ng/ml. The method, then: Human colon HT-29 cells were treated with 4-vinylcatechol for 15 h followed by a co-incubation of 6 h together with a pro-inflammatory agent TNF-α (10 ng/ml). Analysis of the PGE2 production in HT-29 cells was determined using a competitive enzyme immunoassay (EIA) (Cavin et al., BBRC 327, 742-49, 2005).

On to `C=Cc1ccc(O)c(O)c1` [4-vinylcatechol], for which the “firefly luciferase activity (induction of Nrf2 activity)” value was found to be 16 AU in the assay on Nrf2 (4-vinylcatechol 200 μg/ml), 41 AU in the assay on Nrf2 (4-vinylcatechol 400 μg/ml) and 22 AU in the assay on Nrf2 (4-vinylcatechol 600 μg/ml). Moreover, the PGE2 formation in assay [1] (4-vinylcatechol 3.13 μg/ml) is listed as 58 % of control; in assay [1] (4-vinylcatechol 6.25 μg/ml) it was 46 % of control; in assay [1] (4-vinylcatechol 9.38 μg/ml), 21 % of control; in assay [1] (4-vinylcatechol 15.63 μg/ml) it was 12 % of control; in assay [1] (4-vinylcatechol 31.25 μg/ml), 5 % of control; in assay [1] (4-vinylcatechol 62.5 μg/ml), 2 % of control.
